According to the supplement of paper PMC11061612:

Assays:
Assay in all cases: Bliss excess, mean over the matrix (fraction); higher = more synergy
[1] = system: LU-165 (Small Cell Lung Carcinoma)
Outline: (§1)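 Bliss excess equals the observed combination effect minus the expected value EA + EB − EA·EB, where EA and EB are the effects of each agent alone. Combination Emax is the second-highest inhibition within the matrix. Inhibition was scaled from CellTiter-Glo 2.0 luminescence, with 0 set by vehicle wells and 1 by blank wells, after 72 hours of two-drug dosing of cells plated in 1536-well plates.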

[2] = system: JHU-022 (Oral Cavity Carcinoma)
Outline: as §1

[3] = system: Jurkat (T-Lymphoblastic Leukemia)
Outline: as §1

[4] = system: GCT (Other Solid Carcinomas)
Outline: as §1

[5] = system: LS-411N (Colorectal Carcinoma)
Outline: as §1

[6] = system: JHH-2 (Hepatocellular Carcinoma)
Outline: as §1

KP-N-YN (Neuroblastoma) = system: KP-N-YN (Neuroblastoma)
Outline: as §1

[7] = system: 22RV1 (Prostate Carcinoma)
Outline: as §1

5637 (Bladder Carcinoma) = system: 5637 (Bladder Carcinoma)
Outline: as §1

NB13 (Neuroblastoma) = system: NB13 (Neuroblastoma)
Outline: as §1

IM-9 (Non-Cancerous) = system: IM-9 (Non-Cancerous)
Outline: as §1

EW-16 (Ewing's Sarcoma) = system: EW-16 (Ewing's Sarcoma)
Outline: as §1

[8] = system: NCI-H2228 (Lung Adenocarcinoma)
Outline: as §1

A204 (Rhabdomyosarcoma) = system: A204 (Rhabdomyosarcoma)
Outline: as §1

[9] = system: NCI-H2087 (Lung Adenocarcinoma)
Outline: as §1

[10] = system: JVM-2 (B-Cell Non-Hodgkin's Lymphoma)
Outline: as §1

RH-41 (Rhabdomyosarcoma) = system: RH-41 (Rhabdomyosarcoma)
Outline: as §1

[11] = system: JIMT-1 (Breast Carcinoma)
Outline: as §1

[12] = system: EPLC-272H (Other Solid Carcinomas)
Outline: as §1

[13] = system: KYSE-220 (Esophageal Squamous Cell Carcinoma)
Outline: as §1

| Compound | Bliss excess [1] | Bliss excess [2] | Bliss excess [3] | Bliss excess [4] | Bliss excess [5] | Bliss excess [6] | Bliss excess (KP-N-YN (Neuroblastoma)) | Bliss excess [7] | Bliss excess (5637 (Bladder Carcinoma)) | Bliss excess (NB13 (Neuroblastoma)) | Bliss excess (IM-9 (Non-Cancerous)) | Bliss excess (EW-16 (Ewing's Sarcoma)) | Bliss excess [8] | Bliss excess (A204 (Rhabdomyosarcoma)) | Bliss excess [9] | Bliss excess [10] | Bliss excess (RH-41 (Rhabdomyosarcoma)) | Bliss excess [11] | Bliss excess [12] | Bliss excess [13] |
| --- | --- | --- | --- | --- | --- | --- | --- | --- | --- | --- | --- | --- | --- | --- | --- | --- | --- | --- | --- | --- |
| NC1(C(=O)N[C@@H](CCO)c2ccc(Cl)cc2)CCN(c2ncnc3[nH]ccc23)CC1 [Capivasertib] + CCN(CCO)CCCOc1ccc2c(Nc3cc(CC(=O)Nc4cccc(F)c4)[nH]n3)ncnc2c1 [AZD2811] (first compound max 10 µM, 7x7, partner max 1 µM) | -0.0323 | -0.0261 | -0.0289 | -0.0017 | -0.0556 | -0.0437 | -0.0515 | -0.0373 | -0.101 | -0.007 | -0.0686 | -0.014 | -0.041 | -0.0058 | -0.0243 | -0.142 | 0.0097 | 0.0154 | 0.0027 | -0.0154 |
| COc1cccc2c1C(=O)c1c(O)c3c(c(O)c1C2=O)C[C@@](O)(C(=O)CO)C[C@@H]3O[C@H]1C[C@H](N)[C@H](O)[C@H](C)O1 [Doxorubicin] + Cc1cc2ncnn2cc1Nc1ncc2c(n1)n(C1CCOCC1)c(=O)n2C [AZD7648] (first compound max 1 µM, 7x7, partner max 10 µM) | -0.0534 | -0.0307 | 0.181 | 0.0589 | 0.0365 | 0.0229 | 0.0805 | -0.0351 | 0.0902 | 0.0808 | 0.127 | 0.0933 | 0.0042 | 0.0782 | 0.0107 | 0.071 | 0.116 | 0.0514 | 0.0568 | 0.0232 |
| Cc1c2c(nn1C)CSCc1cc(n(C)n1)CSc1cc(c3ccccc3c1)OCCCc1c(C(=O)O)n(C)c3c-2c(Cl)ccc13 [AZD5991] + C=CCn1c(=O)c2cnc(Nc3ccc(N4CCN(C)CC4)cc3)nc2n1-c1cccc(C(C)(C)O)n1 [AZD1775] (first compound max 1 µM, partner max 1 µM) | 0.0112 | -0.0072 | -0.0066 | 0.0301 | 0.0376 | -0.063 | -0.0247 | -0.003 | -0.0352 | -0.0346 | -0.054 | -0.0392 | 0.0114 | 0.0348 | -0.0067 | -0.0165 | 0.0029 | 0.0464 | 0.0188 | 0.0181 |
| Cc1c2c(nn1C)CSCc1cc(n(C)n1)CSc1cc(c3ccccc3c1)OCCCc1c(C(=O)O)n(C)c3c-2c(Cl)ccc13 [AZD5991] + Cn1cnc2c(F)c(Nc3ccc(Br)cc3Cl)c(C(=O)NOCCO)cc21 [Selumetinib] (first compound max 1 µM, 7x7, partner max 3 µM) | -0.0335 | 0.0466 | 0.0294 | 0.0058 | 0.0493 | -0.0154 | -0.0059 | 0.0253 | 0.0174 | 0.045 | 0.0092 | 0.046 | 0.0038 | -0.0355 | 0.0282 | 0.0529 | -0.0293 | -0.014 | 0.0197 | 0.0119 |
| Cn1cnc2c(F)c(Nc3ccc(Br)cc3Cl)c(C(=O)NOCCO)cc21 [Selumetinib] + CC(C)n1c(=O)n(C)c2cnc3cc(F)c(-c4ccc(OCCCN5CCCCC5)nc4)cc3c21 [AZD1390] (first compound max 10 µM, 7x7, partner max 0.3 µM) | -0.03 | 0.02 | -0.0321 | -0.0054 | -0.0107 | -0.0357 | -0.0171 | -0.0538 | -0.0226 | -0.0532 | -0.0603 | -0.0582 | -0.0477 | -0.0567 | -0.0541 | 0.0102 | -0.0082 | -0.0471 | -0.0442 | 0.0022 |
| CN(C)CCCOc1ccc(-c2ccc3ncc4c(c3c2)n(C2CCOCC2)c(=O)n4C)cn1 [AZD0156] + C=CCn1c(=O)c2cnc(Nc3ccc(N4CCN(C)CC4)cc3)nc2n1-c1cccc(C(C)(C)O)n1 [AZD1775] (first compound max 1 µM, partner max 1 µM) | -0.118 | -0.0446 | 0.0794 | -0.0811 | -0.0042 | -0.0233 | -0.0161 | -0.095 | -0.0851 | 0.0215 | 0.007 | -0.0464 | -0.0934 | -0.0545 | -0.071 | -0.0372 | -0.0175 | -0.0287 | -0.0105 | -0.0432 |
| CN(C)CCCOc1ccc(-c2ccc3ncc4c(c3c2)n(C2CCOCC2)c(=O)n4C)cn1 [AZD0156] + CCN(CCO)CCCOc1ccc2c(Nc3cc(CC(=O)Nc4cccc(F)c4)[nH]n3)ncnc2c1 [AZD2811] (first compound max 1 µM, 7x7, partner max 1 µM) | -0.04 | -0.0143 | 0.0543 | -0.0126 | -0.0168 | -0.031 | 0.0037 | -0.0279 | 0.0043 | 0.0458 | -0.0416 | 0.0083 | -0.0223 | -0.0335 | -0.0251 | 0.0105 | 0.0369 | -0.0181 | 0.0394 | -0.0095 |
